Assays:
[1] = system: 4T1-Dendra2 mammary tumors; assay: in vivo imaging of mammary tumors (fluorescence, IVIS Spectrum); parameters: species or system mice; settings: starting from 48 h post-injection
Text: ICG (or indocyanine green / Infracyanine) is a fluorescent agent of the prior art, already approved for use in humans for evaluation of cardiac and hepatic function, as well as in ophthalmology, for retinal diseases. It is also undergoing evaluation in many clinical trials throughout the world for guidance of surgery during tumoral exereses, or mapping of the ganglia draining the tumors, by near infrared imaging. ICG was compared with compound (2) according to the invention, synthesis of which is described above in example 2; this compound is called CJ215 in this study.
The study included 30 mice in total, distributed in three groups. The tumoral grafts were all carried out with 50 000 cells 4T1-Dendra2 /20 µl injected in 2 mammary glands contralaterally for each of the mice. […]
The variation of the intensity of the fluorescence signals recorded for each of the biomarkers over time was evaluated from the microscopy image. The capacity of the two markers for producing a signal specifically localized to the tumor was assessed quantitatively by calculating the ratio of the specific signal associated with the tumor to the nonspecific signal in the surrounding tissues. […]
The quantitative measurements were performed on the raw images, which had not been deconvoluted. […]

[2] = system: orthotopic pancreatic adenocarcinoma; assay: ex vivo fluorescence imaging of pancreatic tumors; format: in vivo, mouse; settings: control dye
Method: A model of orthotopic pancreatic adenocarcinoma in the mouse was developed. The tumoral cells were amplified subcutaneously in SCID mice and the resultant fragments were then implanted surgically in the pancreas of irradiated BALB/c nude mice.
The development of the tumor was monitored in vivo by MRI (4.7T, PharmaScan, Bruker Biospin) at three time points, D14, 28 and 36. The animals were subjected to […] in order to minimize autofluorescence. Fluorescent imaging was performed with a charge-coupled device (CCD) camera (PhotonRT, BiospaceLab) with excitation at 700 nm and an emission filter at 770 nm.
After sessions of in vivo imaging performed at 2 h, 48 h and 164 h, ex vivo fluorescent images were acquired. The fluorescent compounds according to the invention 2 (CJ215) and CJ319 (the structure of which is detailed below) were injected intravenously at 2 mg/kg, 39 days after implantation of the tumor fragments, whereas the average volumes of the tumors were about 70 mm^3. Indocyanine green (ICG), a dye widely used in the per-operative imaging of tumors, was included as a control.

## CC1(C)C(/C=C/C=C/C=C/C=C2\N(CCCCS(=O)(=O)O)c3ccc4ccccc4c3C2(C)C)=[N+](CCCCS(=O)(=O)[O-])c2ccc3ccccc3c21 [ICG, indocyanine green]
[1]
  observability of the fluorescent signal in the tumors: no longer observable in the tumors
[2]
  specific accumulation in the pancreas or the tumor: did not show any specific accumulation

From patent US20230203014A1, “NOVEL F[…] FOR LABELING TUMOR TISSUE” (PROIMAGING, priority 2020, published 2023)
